Literature values in patent publication US11224631B2, “Ready-to-use Carfilzomib compositions” (Orbicular Pharmaceutical Technologies Pvt. Ltd., priority 2017, dated 2022).

Aqueous solubility: low aqueous solubility
SMILES: CC(C)C[C@H](NC(=O)[C@H](CCc1ccccc1)NC(=O)CN1CCOCC1)C(=O)N[C@@H](Cc1ccccc1)C(=O)N[C@@H](CC(C)C)C(=O)[C@@]1(C)CO1 [Carfilzomib]
